Experimental data reported in patent publication US8138191B2, “Inhibitor compounds and cancer treatment methods” (Critical Outcome Technologies Inc., priority 2007, dated 2012).

Key:
[1] = In vivo pharmacokinetics in rats, IV dosing; settings: IV
From the text: Pharmacokinetic studies in animal models provide valuable information that enables prediction of metabolism in humans. There are a large variety of animal models that allow for the pharmacokinetic evaluation of compounds by providing information on serum, plasma, and tissue levels. […] As a result, it is important to keep this phenomenon in mind during extrapolations from animal to human metabolism. An initial pharmacokinetic assessment of COTI-2, administered both intravenously and orally, in its parent formulation and as both an oxalate and tartrate salt were evaluated in rats.
A single oral or IV dose of the COTI-2 free-base or the aforementioned salt forms was administered to groups of male and female rats and blood samples collected and processed at several time-points post-treatment.

in vitro = in vitro ADME
Procedure: (§1) Commercially obtained (Rockland Immunochemicals Inc.), non-sterile, species-specific plasma (human, monkey, and dog) with sodium anticoagulant added was utilized for this study. […] Dialysis membrane strips (12-14K MWCO) were presoaked in water and ethanol, rinsed and then kept in buffer until use. Following assembly of the 96-well dialysis apparatus, […] membrane strips placed between the dialysis and sample compartments. The dialysate compartment was loaded with 0.15 ml phosphate buffer was added to the dialysis side of each well. Plasma (unfiltered) was spiked with 10 μM COTI-2 (1% DMSO) and 0.15 ml added to the sample side of each well. After loading, samples are covered and incubated at 37° C. until equilibrium was reached (at least 8 hours). Equal volumes of sample were removed from the buffer and plasma sides of each well, diluted with acetonitrile/buffer and centrifuged. Also at this time an additional sample was prepared (in duplicate) by spiking COTI-2 in plasma at 10 μM, followed by sampling and diluting in acetonitrile/buffer in the same manner as the incubated plasma sample. This calibration sample served as the basis of a recovery determination. The supernatants were analyzed by HPLC-MS/MS and the peak response of COTI-2 in both dialysis and sample compartments, and in the calibration sample, were subsequently determined in two independent replicates. […] The HPLC conditions consist of a binary LC pump with autosampler, a C18 column (2×20 mm), and gradient elution. The percent bound to plasma/serum proteins and percent recovery of the compounds were calculated. The recovery determination serves as an indicator as to the reliability of the calculated protein binding value.

human plasma = assay: in vitro; assay type: in vitro ADME; settings: 10 µM
Procedure: as §1

dog plasma = assay: in vitro; assay type: in vitro ADME; settings: mixed breeds, 10 µM
Procedure: as §1

[2] = Metabolic Stability (liver microsomes, monkey, Cynomolgus); assay type: in vitro ADME; settings: 1.0E−06 M, 60 min
Procedure: Metabolic stability was determined in human (mixed gender and pool of 50) monkey (male Cynomolgus, pool of 6 or more), dog male, beagle, pool of 4 or more) and rat (male Sprague-Dawley, pool of 100 or more) liver microsomes. […] Four reference substrates (1 μM) were tested simultaneously with COTI-2. […] Peak areas corresponding to COTI-2 were recorded by HPLC-MS/MS. Metabolic stability, expressed as percent of COTI-2 remaining, was calculated by comparing the peak area of COTI-2 at 60 min to time zero.

DMS114 cells = assay: siRNA target knock-down with COTI-219, cell viability by trypan blue, DMS114; assay type: cell-based, human; settings: DMS114, 500 nM, 48 h
Procedure: In brief, cells DMS114 and SHP77 cells were transfected with gene specific siRNA in the presence or absence of COTI-219 and cell viability determined after 24 to 48 h post-incubation using the trypan blue exclusion method.
Cell cultures were maintained under regular tissue culture conditions and passaged 1-2 times a week as recommended by ATCC. With the exception of the siRNA for Bim (Signal Silence Bim siRNA kit #6460 from Cell Signaling), all other siRNA reagents for gene knock-down experiments was obtained from Ambion (Silencer Negative Control #1 siRNA #AM4611, CDK2 Silencer Select #s204, HRAS Silencer Select #s807, Protein kinase C alpha Silencer Validated #301, MAPK3/Erk Silencer Pre-designed #214749, EGFR Silencer Select #s563, and ERBB2 Silencer Select #s611). […] The transfection method required optimization such that a knock-down of the target gene greater than ˜75% was achieved and confirmed by western blot analyses. […] Following an optimal knock-down level at >75%, 2×10^5 cells were incubated with 500 nM COTI-219 and number of viable cells was measured at 48 h.
Cell viability assays were performed 24 to 48 h following incubation with COTI-219 by the trypan blue exclusion method using a Beckman-Coulter Vi-CELL XR 2.03 automated cell counter. Routine laboratory methods were employed for the production of cellular lysates, protein quantitation, SDS-PAGE and western blotting. […]

| Structure (SMILES) | clearance (CL) from plasma, fold higher than the oxalate formulation [1] | clearance (CL) from plasma, fold higher than the tartrate formulation [1] [fold] | recovery at 10 µM (in vitro; human, % Recovery 1st) [%] | recovery at 10 µM (in vitro; human, % Recovery 2nd) [%] | recovery at 10 µM (in vitro; human, % Recovery Mean) [%] | recovery at 10 µM (in vitro; human, percent recovery) [%] | recovery at 10 µM (in vitro; mixed breeds, dog, % Recovery 1st) [%] | recovery at 10 µM (in vitro; mixed breeds, dog, % Recovery 2nd) [%] | recovery at 10 µM (in vitro; mixed breeds, dog, % Recovery Mean) [%] | recovery at 10 µM (in vitro; mixed breeds, dog, percent recovery) [%] | % Protein Bound 1st (human plasma) [%] | % Protein Bound 2nd (human plasma) [%] | % Protein Bound Mean (human plasma) [%] | percent protein bound (human plasma) [%] | % Protein Bound 1st (dog plasma) [%] | % Protein Bound 2nd (dog plasma) [%] | % Protein Bound Mean (dog plasma) [%] | percent protein bound (dog plasma) [%] | Mean Parent Remaining [2] [%] | target knock-downs suppressing the action of COTI-219 on apoptosis/cell growth (DMS114 cells) |
| --- | --- | --- | --- | --- | --- | --- | --- | --- | --- | --- | --- | --- | --- | --- | --- | --- | --- | --- | --- | --- |
| S=C(N/N=C1/CCCc2cccnc21)N1CCN(c2ccccn2)CC1 [COTI-2] | approximately 1.4 fold | ~2.3 | 6.7 | 2.9 | 4.8 | < 50 | 42.6 | 32.8 | 37.7 | < 50 | 99.8 | >99.9 | 99.8 | > 99 | 99.1 | 99.7 | 99.4 | > 99 | 2 | – |
| CN1CCN(C(=S)NN=C2c3ncccc3-c3cccnc32)CC1 [COTI-219] | – | – | – | – | – | – | – | – | – | – | – | – | – | – | – | – | – | – | – | only the Ras knock-down was able to suppress the action of COTI-219 |
